Laboratory results: patent EP0556947A1, “Use of M1-selective antimuscarinic pyridobenzodiazepinones for the treatment and prevention of axial myopia” (MERCK & CO. INC., priority 1992, dated 1993)
Read-outs that look alike come from different tables or passages of the source.

How the values were obtained:
M₁ receptors = biological target: T1, M₁ receptors (Rattus norvegicus, UniProt P08482); test: ³H-pirenzepine radioligand binding assay, rat cerebral cortex; conditions: for selectivity for M₁ than for M₃ receptors: M₁ (rat cerebral cortex) versus M₃ (rabbit iris + ciliary body) binding; for Ki: read-out: M1 Ki
T1 construct: M₁ receptors in rat cerebral cortex were labeled with ³H-pirenzepine; from tissue; host or cells: rat cerebral cortex
T1 sequence (P08482 1-460): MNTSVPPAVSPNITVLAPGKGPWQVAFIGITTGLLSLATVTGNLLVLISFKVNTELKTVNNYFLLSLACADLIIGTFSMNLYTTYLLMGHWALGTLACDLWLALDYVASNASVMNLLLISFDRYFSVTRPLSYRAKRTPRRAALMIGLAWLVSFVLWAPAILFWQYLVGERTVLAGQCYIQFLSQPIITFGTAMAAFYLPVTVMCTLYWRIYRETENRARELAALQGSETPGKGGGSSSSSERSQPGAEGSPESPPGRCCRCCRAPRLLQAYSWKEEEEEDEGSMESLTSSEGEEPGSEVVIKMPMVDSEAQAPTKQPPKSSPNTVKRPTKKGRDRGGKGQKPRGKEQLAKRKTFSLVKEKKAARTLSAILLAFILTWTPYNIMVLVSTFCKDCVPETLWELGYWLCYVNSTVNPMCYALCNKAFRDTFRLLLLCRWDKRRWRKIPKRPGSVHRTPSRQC

M₃ receptors = biological target: T2, M₃ receptors (Oryctolagus cuniculus, UniProt G1U308); test: ³H-QNB radioligand binding assay, rabbit iris + ciliary body (minus ciliary processes)
T2 construct: M₃ receptors in rabbit iris + ciliary body; from tissue; host or cells: rabbit iris + ciliary body (minus ciliary processes)

M₂ receptors = biological target: T3, M₂ receptors (Rattus norvegicus, UniProt P10980); test: ³H-AFDX-384 radioligand binding assay, rat heart; conditions: ³H AFDX-384 binding; for Ki: mean of 3-7 determinations ± SEM, read-out: M2 Ki
T3 construct: ³H-AFDX-384 labeled M₂ receptors in rat heart; from tissue; host or cells: rat heart
T3 sequence (P10980 1-466): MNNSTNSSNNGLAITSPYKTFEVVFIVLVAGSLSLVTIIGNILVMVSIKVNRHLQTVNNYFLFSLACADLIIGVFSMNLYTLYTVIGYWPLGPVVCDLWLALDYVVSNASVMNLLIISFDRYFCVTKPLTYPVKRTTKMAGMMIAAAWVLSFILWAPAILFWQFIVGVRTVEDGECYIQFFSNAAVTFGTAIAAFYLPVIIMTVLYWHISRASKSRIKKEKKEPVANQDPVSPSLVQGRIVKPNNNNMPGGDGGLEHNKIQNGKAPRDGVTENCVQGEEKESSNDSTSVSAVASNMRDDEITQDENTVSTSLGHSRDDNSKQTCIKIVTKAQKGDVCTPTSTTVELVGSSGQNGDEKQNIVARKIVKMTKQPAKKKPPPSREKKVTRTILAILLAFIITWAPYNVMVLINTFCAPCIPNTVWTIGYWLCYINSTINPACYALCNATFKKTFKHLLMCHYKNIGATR

myopia = conditions: 1.0% atropine applied topically at bedtime, treated eye, one year per eye; cited from earlier work
[1] = system: female Dunkin Hartley albino guinea pigs; test: guinea pig maximization test (sensitization); type: in vivo; conditions: challenge phase, readings on days 24 and 25
Protocol: The guinea pig maximization test is required by the U.S. Food and Drug Administration of all drugs intended for ophthalmic administration. […] In Phase I, which is the induction phase, on day 1 two intradermal injections at the highest generally tolerated concentration of the test material were administered in the shaved intercapsular area (O.1ml of the test agent in a 50:50 mixture of Freund's complete adjuvant and distilled water). On day 7, approximately 400mg of a mixture of 10% sodium laurel sulfate in petrolatum was applied to the shaved intercapsular area. On day 8, 400mg of a mixture of the test compound in petrolatum was applied, on a 2 x 4 cm piece of Whatman paper to the shaved intercapsular area, along with Blenderm tape.
In Phase II, which is the challenge phase, on day 22, 200mg of petrolatum was applied to the shaved right flank, while 200mg of test compound at the highest non-irritant concentration (micronized in petrolatum) was applied to the shaved left flank, with each application being occluded for 24 hours.

Form-deprivation myopia = test: form-deprivation myopia model in chicks (eyelid suture); type: in vivo, White Leghorn chicks; conditions: expected from M₁ potency relative to pirenzepine; no data reported
Protocol: Form-deprivation myopia is induced in day-old White Leghorn chicks under aseptic conditions and other anesthesia by eyelid suture to one eye. The chicks are maintained on a 12-hour light:dark cycle. […] Drug is injected daily subconjunctivally during the light cycle. At two weeks of age the animals are sacrificed and axial and equatorial dimensions of unfixed eyes are measured with vernier calipers independently by two observers.

[2] = system: axial enlargement of the eye; conditions: ocular administration under image deprivation; cited from earlier work
[3] = ³H-QNB binding, rabbit iris + ciliary body (minus ciliary processes)
[4] = ³H Pirenzepine binding, rat cerebral cortex
[5] = ³H-QNB binding, rabbit iris + ciliary body (minus ciliary processes), mean of 3-7 determinations ± SEM, read-out: M3 Ki

T2 sequence (G1U308 1-599): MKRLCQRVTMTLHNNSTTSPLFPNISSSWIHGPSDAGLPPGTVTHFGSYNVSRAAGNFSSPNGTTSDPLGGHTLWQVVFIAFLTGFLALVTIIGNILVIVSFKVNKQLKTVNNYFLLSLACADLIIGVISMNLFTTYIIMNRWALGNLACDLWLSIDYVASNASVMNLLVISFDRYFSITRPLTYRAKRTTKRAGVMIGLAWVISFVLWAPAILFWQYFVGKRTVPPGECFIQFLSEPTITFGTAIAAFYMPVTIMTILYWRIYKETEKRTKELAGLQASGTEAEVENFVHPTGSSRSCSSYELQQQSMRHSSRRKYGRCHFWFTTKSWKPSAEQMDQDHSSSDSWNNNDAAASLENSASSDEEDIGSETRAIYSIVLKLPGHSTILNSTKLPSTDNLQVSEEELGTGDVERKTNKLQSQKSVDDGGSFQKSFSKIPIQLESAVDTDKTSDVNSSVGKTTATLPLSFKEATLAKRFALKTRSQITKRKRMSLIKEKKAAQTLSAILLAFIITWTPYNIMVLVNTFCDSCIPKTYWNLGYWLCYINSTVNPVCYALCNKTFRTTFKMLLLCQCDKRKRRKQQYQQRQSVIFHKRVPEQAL

For `CN1[C@@H]2CC[C@H]1C[C@@H](OC(=O)C(CO)c1ccccc1)C2` (some centres unmarked) [Atropine, reference compound], which “M1 nH (Hill Coefficient)” value (M₁ receptors) is on record?
Its value is 1.5.

And the Ki (M₃ receptors)?
Its Ki is 0.37 nM.

What about the “M3 nH (Hill Coefficient)” value (M₃ receptors; [3]) of the same molecule?
The value was 1.1.

What about the “M2 nH (Hill Coefficient)” value (M₂ receptors) of the same molecule?
The value was 1.05.

And the “progression of the myopia” value (myopia)?
The value was “halted”.

Which results are given for `CN1CCC(C(=O)N2c3ccccc3C(=O)Nc3cccnc32)CC1` [Nuvenzepine, 11-(1-Methylpiperidin-4-carbonyl)-5,11-dihydro-6H -pyrido[2,3-b][1,4]benzodiazepin-6-one]?
grade of skin reaction ([1]; in any test animal): 0; selectivity for M₁ than for M₃ receptors (M₁ receptors): 20 fold; Ki (M₁ receptors): 1.5 nM; M1 nH (Hill Coefficient) (M₁ receptors; [4]): 0.9; M3 nH (Hill Coefficient) (M₃ receptors; [3]): 0.80; Ki (M₃ receptors; [5]): 29.7 nM; M2 nH (Hill Coefficient) (M₂ receptors): 1.03; Ki (M₂ receptors): 248 nM; effectiveness in myopia therapy (Form-deprivation myopia): at least as effective as pirenzepine

For `CN1CCN(CC(=O)N2c3ccccc3C(=O)Nc3cccnc32)CC1` [Pirenzepine, reference compound], which “grade of skin reaction” value ([1]; in six of nine animals) is on record?
Its value is 1.

What about the “grade of skin reaction” value ([1]; in two of nine animals) of the same molecule?
The value was 2.

For `CN1CCCC(C(=O)N2c3ccccc3C(=O)Nc3cccnc32)C1` (centres unmarked) [Rispenzepine, 11-(1-Methylpiperidin-3-carbonyl)-5,11-dihydro-6H -pyrido[2,3-b][1,4]benzodiazepin-6-one], which “grade of skin reaction” value ([1]; in any test animal) is on record?
Its value is 0.

And the “selectivity for M₁ than for M₃ receptors” value (M₁ receptors)?
The value was 15 fold.

What about the Ki (M₁ receptors) of the same molecule?
Its Ki is 2.61 nM.

And the “M1 nH (Hill Coefficient)” value (M₁ receptors; [4])?
Its value is 0.9.

What about the “M3 nH (Hill Coefficient)” value (M₃ receptors; [3]) of the same molecule?
Its value is 0.84.

And the Ki (M₃ receptors; [5])?
Its Ki is 38.9 nM.

What about the “M2 nH (Hill Coefficient)” value (M₂ receptors) of the same molecule?
Its value is 1.00.

What about the Ki (M₂ receptors) of the same molecule?
Its Ki is 226 nM.

What about the “effectiveness in myopia therapy” value (Form-deprivation myopia) of the same molecule?
The value was “at least as effective as pirenzepine”.

For `CN1CCc2cccc3c2[C@H]1Cc1ccc(O)c(O)c1-3` [apOmorphine], which “axial enlargement of the eye” value [2] is on record?
The value was “inhibit or actually prevent”.
